Source: publication PMC11823609, “Advancements in the fight against globally distributed OXA-48 carbapenemase: evaluating the new generation of carbapenemase inhibitors” (Antimicrobial Agents and Chemotherapy, 2025)
Values after ≈ are worked out from the molar mass of the structure shown. Read-outs that look alike come from different tables or passages of the source.

Legend:
[1] = tested on: E. coli HB4 ΔompC/F (CTX-M-14); experiment: microbe, parasite or virus in culture; type: cell-based, Escherichia coli
[2] = tested on: E. coli HB4 ΔompC/F (CTX-M-14 + OXA-48); experiment: microbe, parasite or virus in culture; type: cell-based, Escherichia coli; settings: for decrease of ertapenem MIC with BLI: E. coli HB4 coproducing CTX-M-14 and OXA-48, BLI 4 mg/L
How it was run: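 Inhibitors, each fixed at 4 mg/L, were paired with ertapenem or ceftazidime as reporter antibiotics. These combinations were tested against E. coli TG1 and low-permeability HB4 transformants producing OXA-48, alone or with CTX-M-14, with triplicate MICs.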

OXA-48 [3] = target: T1, OXA-48 (Klebsiella pneumoniae, UniProt Q6XEC0); experiment: Dissociation rate (koff) by jump dilution; t1/2 and Kd; type: biochemical; parameters: These primers amplified the blaOXA-48 gene without the signal peptide; GST (glutathione S-transferase, pGEX-6P-1) (N, cleaved yes); made in house; host or cells: E. coli BL21; settings: for Kd: koff/kon; for residence time: read-out: t1/2 (residence time)
T1 sequence (Q6XEC0 23-265 limits assumed): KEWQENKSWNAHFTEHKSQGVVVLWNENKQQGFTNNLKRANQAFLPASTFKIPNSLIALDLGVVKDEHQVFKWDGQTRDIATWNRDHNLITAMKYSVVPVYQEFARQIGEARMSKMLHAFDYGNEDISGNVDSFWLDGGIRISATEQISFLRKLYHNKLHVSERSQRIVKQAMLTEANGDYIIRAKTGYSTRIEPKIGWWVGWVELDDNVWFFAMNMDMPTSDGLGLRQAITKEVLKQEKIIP
Procedure: (§1) OXA-48 was cloned, produced, and purified following the procedures described in the supplemental methods. The steady-state inhibition constants (Ki app) and kinetics of inhibition (such as k2/K , koff, Kd, and tn) were determined following previously established protocols, are also outlined in the supplemental methods.
The dissociation rate constant (koff) was determined using a “jump dilution” method in which OXA-48 enzyme activity was monitored over time as the BLI dissociates. […] Subsequently, the reaction mixture was diluted 10,000-fold dilution in the reaction buffer. […] Absorbance was recorded at 60-s intervals over a 2-h period at RT. The resulting reaction progress curve was fitted to equation 4, which includes the exponential function (6). […] From the fit, GraphPad Prism software, (MA, USA) also calculates the dissociation half-time (t1/2), in min.
koff was obtained directly from the dissociation experiment and kon was previously calculated, thus finally Kd was calculated as the fraction between koff and kon.
P= Vs x t + (V0-Vs) x [1– exp ^(-k^off x ^t)] / koff (4)

OXA-48 [4] = target: T1, OXA-48; experiment: Steady-state inhibition constant (Ki app), nitrocefin reporter; type: biochemical; parameters: These primers amplified the blaOXA-48 gene without the signal peptide; GST (glutathione S-transferase, pGEX-6P-1) (N, cleaved yes); made in house; host or cells: E. coli BL21; settings: nitrocefin 300 µM reporter, 25 °C, pH 7.4
Procedure: as §1
(§2) Ki app serves as an equilibrium constant, calculable from […] conditions and indicates the formation of the enzyme acyl E-S complex. […] Plotting the inverse initial velocities (1/V0) against inhibitory concentrations ([I]) facilitated fitting the data to a linear equation. The intersection, divided by the slope of the line, was defined as the observed Ki app.
Ki app (corrected)= Ki app (observed) / [ 1+ ([S]/KmNFC)] (2)

[5] = tested on: OXA-48-producing Enterobacterales clinical isolates; experiment: MIC summary over clinical isolates; type: cell-based
Procedure: The efficacy of these new BLIs was also evaluated against 18 genetically diverse WGS-characterized collection of OXA-48-positive Enterobacterales recovered as part of the Carbapenem-resistant Enterobacterales Genome Database Project (https://genomes.cnag.cat/incredble) listed in Table S2 ([13]). Combinations of clinical isolates (five pairs of Klebsiella pneumoniae, two pairs of Enterobacter cloacae, and two pairs of E. coli) were chosen for analysis: (i) nine strains carrying ESBLs; and (ii) nine strains (genetically closer available strains) without ESBLs.
(§3) The MICs of each of the individual compounds (antibiotics or inhibitors) were also determined. The MICs were determined for the E. coli isogenic expressing OXA-48 (and both OXA-48 and CTX-M-14) to assess their activity against the carbapenemase; MICs were also determined for the 18 Enterobacterales clinical isolates in order to evaluate the new inhibitors against also their resistance concomitant mechanisms. The MICs were determined in triplicate experiments, and the EUCAST 13.0 clinical breakpoints were followed (http://www.eucast.org/clinical_breakpoints).
(§4) For comparative evaluation of the activity of each inhibitor alone against the carbapenemase OXA-48, all inhibitors (at 4 mg/L) were tested in the presence of a carbapenem (ertapenem, adequate substrate) and a cephalosporin (ceftazidime, poor substrate) as reporter substrates. This prevented any possible masking effect produced by the different partner antibiotics. These assays were also performed with isogenic transformants and clinical isolates.

OXA-48 [6] = target: T1, OXA-48; experiment: Inhibition efficiency / onset of acylation (k2/K), nitrocefin reporter; type: biochemical; parameters: These primers amplified the blaOXA-48 gene without the signal peptide; GST (glutathione S-transferase, pGEX-6P-1) (N, cleaved yes); made in house; host or cells: E. coli BL21; settings: for k2/K: nitrocefin reporter; for kinact/KI: pH 7.4, read-out: k2/K, nitrocefin reporter
Procedure: as §1, §2
k2/K = k2/kobs × [([S]/Km NCF) + 1] (3)

OXA-48 [7] = target: T1, OXA-48; experiment: Partition ratio / turnover number (tn), I/E for >90% inhibition; type: biochemical; parameters: These primers amplified the blaOXA-48 gene without the signal peptide; GST (glutathione S-transferase, pGEX-6P-1) (N, cleaved yes); made in house; host or cells: E. coli BL21; settings: 15 min incubation, 500 nM enzyme
Procedure: as §1
The evaluation involved exposure to increasing concentrations of inhibitors plus 500 nM of enzyme, at different molar I/E ratios.

[8] = tested on: E. coli TG1 and HB4 transformants; experiment: MIC summary over E. coli transformants; type: cell-based, Escherichia coli; settings: for effect of ertapenem/BLI on bacterial growth / decrease of ertapenem MIC with BLI: OXA-48-producing E. coli hosts, BLI 4 mg/L; for MICs of inhibitor alone (range over strains): TG1 and HB4 E. coli
From the text: The E. coli HB4 strain was used to gain a more complete perspective, by evaluating the involvement in resistance of a low permeability background with the carbapenemase OXA-48, as well as coproduction of an ESBL and the carbapenemase; thus, the ESBL CTX-M-14 and OXA-48 were cloned together and separately into E. coli HB4. The characteristics of these strains and transformants are summarized in Table S1, and the cloning procedures are outlined in the supplemental methods.
as §3, §4

OXA-48 [9] = target: T1, OXA-48; parameters: These primers amplified the blaOXA-48 gene without the signal peptide; GST (glutathione S-transferase, pGEX-6P-1) (N, cleaved yes); made in house; host or cells: E. coli BL21; method as in earlier work; settings: ref 5 Hecker et al.; cited from earlier work

Row | SMILES | MIC ([1]; Escherichia coli) | MIC ([2]; Escherichia coli) | koff (OXA-48 [3]; jump dilution, read-out: koff) | Kd (OXA-48 [3]) | residence time (OXA-48 [3]) | Ki (OXA-48 [4]) | k2/K (OXA-48 [6]) | kinact/KI (OXA-48 [6]) | tn (partition ratio, I:E) (OXA-48 [7]) | effect of ertapenem/BLI on bacterial growth [8] | MICs of inhibitor alone (range over strains) [8] | decrease of ertapenem MIC with BLI [2] | decrease of ertapenem MIC with BLI [8] | also measured
1 | CC(C)(O/N=C(\C(=O)N[C@@H]1C(=O)N2C(C(=O)[O-])=C(C[n+]3ccccc3)CS[C@H]12)c1csc(N)n1)C(=O)O [CAZ, ceftazidime] | 16 µg/mL (≈ 29.3 µM) | 16 µg/mL (≈ 29.3 µM) |  |  |  |  |  |  |  |  |  |  |  | MIC ([1]; E. coli HB4 ΔompC/F (CTX-M-14), ceftazidime alone or with BLI at 4 mg/L): 16 µg/mL (≈ 29.3 µM); MIC ([2]; E. coli HB4 ΔompC/F (CTX-M-14 + OXA-48), ceftazidime alone or with BLI at 4 mg/L): 16 µg/mL
2 | CC1=C[C@@H]2CN(C(=O)N2OS(=O)(=O)O)[C@@H]1C(N)=O [Durlobactam, durlobactam] | 1 µg/mL (≈ 3.61 µM) | 1 µg/mL (≈ 3.61 µM) | 9.5e-06 s⁻¹ | 0.07 ± 0.01 nM | 1220 ± 213 min | 103 ± 24 nM | 142000 ± 38000 M⁻¹ s⁻¹ | 140000 M⁻¹ s⁻¹ | 1 | totally inhibited bacterial growth | 0.12 to 2 mg/L |  |  | MIC of inhibitor alone (range over isolates) ([5]; 18 clinical isolates): 0.25 to 4 µg/mL
3 | NCCONC(=O)[C@@H]1CC[C@@H]2CN1C(=O)N2OS(=O)(=O)O [Nacubactam, nacubactam] | 2 µg/mL (≈ 6.17 µM) | 2 µg/mL (≈ 6.17 µM) | 0.0002 s⁻¹ | 41000 nM | 57.7 ± 7.5 min | > 800000 nM |  | 4.88 ± 2.11 M⁻¹ s⁻¹ | 70 | totally inhibited bacterial growth | 0.12 to 2 mg/L |  |  | decrease of meropenem MIC by BLI ([5]; clinical isolates): 0–32 fold
4 | NCCN[C@H]1CC[C@H](CC(=O)N[C@H]2Cc3cccc(C(=O)O)c3OB2O)CC1 [Taniborbactam, taniborbactam] | ≥ 128 µg/mL | ≥ 128 µg/mL | 0.00023 s⁻¹ |  | 50.2 ± 8.2 min | 75 ± 15 nM |  |  | 200 |  |  | 8 fold | 8–256 fold | reduction of cefepime MICs by BLI ([5]; clinical isolates): 2–512 fold
5 | O=C(O)C[C@@H]1CC[C@H](NC(=O)Cc2cccs2)B(O)O1 [Vaborbactam, vaborbactam] | ≥ 128 µg/mL | ≥ 128 µg/mL |  |  | 44.4 ± 1.6 min | 43600 nM |  |  | >3,000 |  |  |  |  | koff (OXA-48 [3]): 2.6 × 10^−4 ± .5 10^−4 s^−1
6 | O=C(O)c1c(F)ccc2c1OB(O)[C@@H]1C[C@H]21 [Xeruborbactam, xeruborbactam] | 16 µg/mL (≈ 72.1 µM) | 16 µg/mL (≈ 72.1 µM) | 0.0002 s⁻¹ | 0.63 nM | 57.7 ± 9.6 min | 18 ± 2 nM | 310000 M⁻¹ s⁻¹ | 313000 M⁻¹ s⁻¹ | 1 |  |  | 256 fold | 8–256 fold | higher inhibitory activity (Ki) for OXA-48 than avibactam (OXA-48 [9]): 96 fold; higher inhibitory activity (Ki) for OXA-48 than vaborbactam (OXA-48 [9]): 50,000 fold
